According to ChEMBL document CHEMBL1201862, “PubChem BioAssay data set” (2004):
The source made the active and inactive calls. Cut-off read from the data, not from the text of the source, for most assays here: actives have a measured EC50 and inactives only a lower limit.

biological target: T1, Cytochrome P450 1A2 (Homo sapiens, UniProt P05177);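 note: PubChem cytochrome P450 panel assay, CYP1A2 panel member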
T1 sequence (P05177 whole entry): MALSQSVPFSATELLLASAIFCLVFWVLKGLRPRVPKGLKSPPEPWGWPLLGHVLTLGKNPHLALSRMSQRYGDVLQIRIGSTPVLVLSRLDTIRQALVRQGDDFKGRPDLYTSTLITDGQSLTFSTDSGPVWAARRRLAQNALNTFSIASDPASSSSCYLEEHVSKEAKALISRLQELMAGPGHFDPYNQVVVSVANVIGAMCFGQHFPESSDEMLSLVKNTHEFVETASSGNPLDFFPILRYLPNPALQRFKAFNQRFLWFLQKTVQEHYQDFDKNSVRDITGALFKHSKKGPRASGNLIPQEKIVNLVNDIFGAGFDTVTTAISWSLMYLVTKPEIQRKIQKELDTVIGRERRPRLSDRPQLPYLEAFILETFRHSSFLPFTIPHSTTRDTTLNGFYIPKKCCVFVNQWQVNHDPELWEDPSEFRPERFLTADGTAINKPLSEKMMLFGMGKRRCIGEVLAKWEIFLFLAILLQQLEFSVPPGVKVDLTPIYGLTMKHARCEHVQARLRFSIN

| AC50 | SMILES |
| --- | --- |
| 15.8 µM (inconclusive) | CCOC(=O)c1ccc(OC(=O)CCCCCNC(=N)N)cc1 [GABEXATE] |

tested on: not listed separately; assay: inhibitors of intracellular T. cruzi replication, confirmation, NIH3T3 host cells, beta-gal luminescence (AID 2044); type: functional, cell-based;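 note: intracellular parasites grown in NIH/3T3 mouse fibroblasts as host cells; luminescent beta-galactosidase reporter signal from transgenic T. cruzi replicating inside host cells; inhibitors lower the luminescence signal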

| SMILES | EC50 |
| --- | --- |
| COc1ccccc1C(c1nnnn1Cc1ccco1)N1CCN(c2cccc(C)c2C)CC1 (centres undefined) | 1.84 µM (active) |
| CCCOc1ccc(CNCCCOCC)cc1OC | 0.344 µM (active) |
| CC1(C)CC(=O)c2c(n(S(=O)(=O)c3ccccc3)c3ccc(NS(=O)(=O)c4ccccc4)cc23)C1 | 1.03 µM (active) |
| COC(=O)C1=CN(Cc2ccc(OC)c(OC)c2)C=C(C(=O)OC)C1c1cccs1 | 0.707 µM (active) |
| CC1CCCC(C)N1S(=O)(=O)c1ccc(S(=O)(=O)NCCc2ccncc2)cc1 (centres undefined) | 2.83 µM (active) |
| Cc1cc(C)nc(N=C(NCCc2c[nH]c3ccccc23)NC(=O)Nc2ccc(Cl)c(Cl)c2)n1 | 1.62 µM (active) |
| CCOc1cccc2sc(N(CCCN(C)C)C(=O)c3ccc(S(=O)(=O)N(C)c4ccccc4)cc3)nc12 | 1.52 µM (active) |
| COc1ccc(CN(C(=O)c2ccc(-c3ccccc3)[nH]2)C(C(=O)NC(C)(C)C)c2ccncc2)cc1 (centres undefined) | 0.706 µM (active) |
| COc1cc(CNCCc2ccccc2F)ccc1OCC(=O)N1CCCCC1 | 0.393 µM (active) |
| O=[N+]([O-])c1cc(-c2n[nH]c(-c3ccccc3)n2)cc([N+](=O)[O-])c1 | 0.475 µM (active) |
| COc1ccccc1C(=O)NC(=S)Nc1ccc(N2CCCC2)cc1 | 1.97 µM (active) |
| CN1CCN(c2ncnc3sc(-c4ccccc4)cc23)CC1 | 0.314 µM (active) |
| CCc1ccc(CN(Cc2cccnc2)C(=O)/C=C/c2ccc(OC)cc2)cc1 | 0.375 µM (active) |
| O=c1[nH]c(=O)c2cc([N+](=O)[O-])cc([N+](=O)[O-])c2[nH]1 | 1.04 µM (active) |
| N#Cc1c(NC(=S)NC(=O)c2ccccc2)sc2c1CCN(CCc1ccccc1)C2 | 0.717 µM (active) |
| N#Cc1ccccc1Cn1cc(/C=N/Nc2ccc([N+](=O)[O-])cn2)c2ccccc21 | 1.94 µM (active) |
| Cc1ccc2cc(/C=N/NC(=O)[C@H]3C[C@@H]3c3ccccc3)c(Cl)nc2c1 | 2.26 µM (active) |
| COc1ccc(/C=C/c2ccncc2)cc1 | 0.529 µM (active) |

tested on: Streptococcus sp. 'group A'; assay: growth inhibition of control SK(-) GAS strain, dose response, counter-screen for streptokinase expression inhibitor project, luminescence, kanamycin, BacTiterGlo, confirmation (AID 1900); type: functional, organism-based

| SMILES | EC50 |
| --- | --- |
| CCC(N=C(S)NC1CCCCC1)c1ccc(C(C)C)cc1 (centres undefined) | 10.7 µM (active) |
| CCOc1ccc(NS(=O)(=O)c2cc(NC(=O)c3ccc(C)cc3)ccc2Cl)cc1 | 12.5 µM (active) |
| Cc1ccccc1-n1nc(C(=O)c2cccs2)cc(-c2nc3ccccc3[nH]2)c1=N | 2.99 µM (active) |
| Cc1ccc(NC(S)=NC2CCSc3ccccc32)cc1C (centres undefined) | 20.6 µM (active) |

tested on: Streptococcus; assay: Group A Streptococcus viability loss, dose response, counter-screen for streptokinase expression inhibitor project, luminescence, BacTiterGlo (AID 1915); type: functional, organism-based;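 note: potency for reduction of bacterial viability or growth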

| SMILES | EC50 |
| --- | --- |
| CCC(N=C(S)NC1CCCCC1)c1ccc(C(C)C)cc1 (centres undefined) | 82 µM (active) |
| CCOc1ccc(NS(=O)(=O)c2cc(NC(=O)c3ccc(C)cc3)ccc2Cl)cc1 | 6.62 µM (active) |
| Cc1ccccc1-n1nc(C(=O)c2cccs2)cc(-c2nc3ccccc3[nH]2)c1=N | 3.73 µM (active) |
| Cc1ccc(NC(S)=NC2CCSc3ccccc32)cc1C (centres undefined) | > 150 µM (not active) |

tested on: not listed separately; assay: cytotoxicity toward NIH3T3 fibroblasts, dose response, counter-screen, cell-based, ATP luminescence, mouse fibroblasts (AID 2010); type: functional;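 note: cells exposed to compound for about 90 hours before reading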

| SMILES | EC50 |
| --- | --- |
| COc1ccccc1C(c1nnnn1Cc1ccco1)N1CCN(c2cccc(C)c2C)CC1 (centres undefined) | > 60 µM (not active) |
| CCCOc1ccc(CNCCCOCC)cc1OC | > 60 µM (inconclusive) |
| CC1(C)CC(=O)c2c(n(S(=O)(=O)c3ccccc3)c3ccc(NS(=O)(=O)c4ccccc4)cc23)C1 | 10.6 µM (active) |
| CC1CCCC(C)N1S(=O)(=O)c1ccc(S(=O)(=O)NCCc2ccncc2)cc1 (centres undefined) | > 60 µM (not active) |
| Cc1cc(C)nc(N=C(NCCc2c[nH]c3ccccc23)NC(=O)Nc2ccc(Cl)c(Cl)c2)n1 | > 60 µM (not active) |
| CCOc1cccc2sc(N(CCCN(C)C)C(=O)c3ccc(S(=O)(=O)N(C)c4ccccc4)cc3)nc12 | > 60 µM (not active) |
| COc1ccc(CN(C(=O)c2ccc(-c3ccccc3)[nH]2)C(C(=O)NC(C)(C)C)c2ccncc2)cc1 (centres undefined) | > 60 µM (not active) |
| COc1cc(CNCCc2ccccc2F)ccc1OCC(=O)N1CCCCC1 | > 30 µM (not active) |
| O=[N+]([O-])c1cc(-c2n[nH]c(-c3ccccc3)n2)cc([N+](=O)[O-])c1 | > 60 µM (not active) |
| COc1ccccc1C(=O)NC(=S)Nc1ccc(N2CCCC2)cc1 | > 60 µM (not active) |
| CN1CCN(c2ncnc3sc(-c4ccccc4)cc23)CC1 | > 60 µM (not active) |
| CCc1ccc(CN(Cc2cccnc2)C(=O)/C=C/c2ccc(OC)cc2)cc1 | > 30 µM (not active) |
| O=c1[nH]c(=O)c2cc([N+](=O)[O-])cc([N+](=O)[O-])c2[nH]1 | > 30 µM (not active) |
| N#Cc1c(NC(=S)NC(=O)c2ccccc2)sc2c1CCN(CCc1ccccc1)C2 | > 60 µM (not active) |
| N#Cc1ccccc1Cn1cc(/C=N/Nc2ccc([N+](=O)[O-])cn2)c2ccccc21 | > 60 µM (inconclusive) |
| Cc1ccc2cc(/C=N/NC(=O)[C@H]3C[C@@H]3c3ccccc3)c(Cl)nc2c1 | > 60 µM (not active) |
| COc1ccc(/C=C/c2ccncc2)cc1 | > 60 µM (not active) |
